# Test results reported in ChEMBL document CHEMBL5316381, “Discovery of [1,2,3]Triazolo[4,5-c]quinoline Derivatives as a New Class of Ataxia-Telangiectasia Mutated Kinase Inhibitors” (ACS Med Chem Lett, 2023).
# Activity calls are given as the source filed them. The rule behind the calls is not given here.
# Columns and labels:
# [1] = target: T1, Serine-protein kinase ATM (Homo sapiens, UniProt Q13315); assay: Inhibition of ATM (unknown origin) using GST-cMyc-p53 as substrate incubated for 30 mins in presence of Mg/ATP mix by HTRF-based analysis
# T1 sequence (Q13315 whole entry): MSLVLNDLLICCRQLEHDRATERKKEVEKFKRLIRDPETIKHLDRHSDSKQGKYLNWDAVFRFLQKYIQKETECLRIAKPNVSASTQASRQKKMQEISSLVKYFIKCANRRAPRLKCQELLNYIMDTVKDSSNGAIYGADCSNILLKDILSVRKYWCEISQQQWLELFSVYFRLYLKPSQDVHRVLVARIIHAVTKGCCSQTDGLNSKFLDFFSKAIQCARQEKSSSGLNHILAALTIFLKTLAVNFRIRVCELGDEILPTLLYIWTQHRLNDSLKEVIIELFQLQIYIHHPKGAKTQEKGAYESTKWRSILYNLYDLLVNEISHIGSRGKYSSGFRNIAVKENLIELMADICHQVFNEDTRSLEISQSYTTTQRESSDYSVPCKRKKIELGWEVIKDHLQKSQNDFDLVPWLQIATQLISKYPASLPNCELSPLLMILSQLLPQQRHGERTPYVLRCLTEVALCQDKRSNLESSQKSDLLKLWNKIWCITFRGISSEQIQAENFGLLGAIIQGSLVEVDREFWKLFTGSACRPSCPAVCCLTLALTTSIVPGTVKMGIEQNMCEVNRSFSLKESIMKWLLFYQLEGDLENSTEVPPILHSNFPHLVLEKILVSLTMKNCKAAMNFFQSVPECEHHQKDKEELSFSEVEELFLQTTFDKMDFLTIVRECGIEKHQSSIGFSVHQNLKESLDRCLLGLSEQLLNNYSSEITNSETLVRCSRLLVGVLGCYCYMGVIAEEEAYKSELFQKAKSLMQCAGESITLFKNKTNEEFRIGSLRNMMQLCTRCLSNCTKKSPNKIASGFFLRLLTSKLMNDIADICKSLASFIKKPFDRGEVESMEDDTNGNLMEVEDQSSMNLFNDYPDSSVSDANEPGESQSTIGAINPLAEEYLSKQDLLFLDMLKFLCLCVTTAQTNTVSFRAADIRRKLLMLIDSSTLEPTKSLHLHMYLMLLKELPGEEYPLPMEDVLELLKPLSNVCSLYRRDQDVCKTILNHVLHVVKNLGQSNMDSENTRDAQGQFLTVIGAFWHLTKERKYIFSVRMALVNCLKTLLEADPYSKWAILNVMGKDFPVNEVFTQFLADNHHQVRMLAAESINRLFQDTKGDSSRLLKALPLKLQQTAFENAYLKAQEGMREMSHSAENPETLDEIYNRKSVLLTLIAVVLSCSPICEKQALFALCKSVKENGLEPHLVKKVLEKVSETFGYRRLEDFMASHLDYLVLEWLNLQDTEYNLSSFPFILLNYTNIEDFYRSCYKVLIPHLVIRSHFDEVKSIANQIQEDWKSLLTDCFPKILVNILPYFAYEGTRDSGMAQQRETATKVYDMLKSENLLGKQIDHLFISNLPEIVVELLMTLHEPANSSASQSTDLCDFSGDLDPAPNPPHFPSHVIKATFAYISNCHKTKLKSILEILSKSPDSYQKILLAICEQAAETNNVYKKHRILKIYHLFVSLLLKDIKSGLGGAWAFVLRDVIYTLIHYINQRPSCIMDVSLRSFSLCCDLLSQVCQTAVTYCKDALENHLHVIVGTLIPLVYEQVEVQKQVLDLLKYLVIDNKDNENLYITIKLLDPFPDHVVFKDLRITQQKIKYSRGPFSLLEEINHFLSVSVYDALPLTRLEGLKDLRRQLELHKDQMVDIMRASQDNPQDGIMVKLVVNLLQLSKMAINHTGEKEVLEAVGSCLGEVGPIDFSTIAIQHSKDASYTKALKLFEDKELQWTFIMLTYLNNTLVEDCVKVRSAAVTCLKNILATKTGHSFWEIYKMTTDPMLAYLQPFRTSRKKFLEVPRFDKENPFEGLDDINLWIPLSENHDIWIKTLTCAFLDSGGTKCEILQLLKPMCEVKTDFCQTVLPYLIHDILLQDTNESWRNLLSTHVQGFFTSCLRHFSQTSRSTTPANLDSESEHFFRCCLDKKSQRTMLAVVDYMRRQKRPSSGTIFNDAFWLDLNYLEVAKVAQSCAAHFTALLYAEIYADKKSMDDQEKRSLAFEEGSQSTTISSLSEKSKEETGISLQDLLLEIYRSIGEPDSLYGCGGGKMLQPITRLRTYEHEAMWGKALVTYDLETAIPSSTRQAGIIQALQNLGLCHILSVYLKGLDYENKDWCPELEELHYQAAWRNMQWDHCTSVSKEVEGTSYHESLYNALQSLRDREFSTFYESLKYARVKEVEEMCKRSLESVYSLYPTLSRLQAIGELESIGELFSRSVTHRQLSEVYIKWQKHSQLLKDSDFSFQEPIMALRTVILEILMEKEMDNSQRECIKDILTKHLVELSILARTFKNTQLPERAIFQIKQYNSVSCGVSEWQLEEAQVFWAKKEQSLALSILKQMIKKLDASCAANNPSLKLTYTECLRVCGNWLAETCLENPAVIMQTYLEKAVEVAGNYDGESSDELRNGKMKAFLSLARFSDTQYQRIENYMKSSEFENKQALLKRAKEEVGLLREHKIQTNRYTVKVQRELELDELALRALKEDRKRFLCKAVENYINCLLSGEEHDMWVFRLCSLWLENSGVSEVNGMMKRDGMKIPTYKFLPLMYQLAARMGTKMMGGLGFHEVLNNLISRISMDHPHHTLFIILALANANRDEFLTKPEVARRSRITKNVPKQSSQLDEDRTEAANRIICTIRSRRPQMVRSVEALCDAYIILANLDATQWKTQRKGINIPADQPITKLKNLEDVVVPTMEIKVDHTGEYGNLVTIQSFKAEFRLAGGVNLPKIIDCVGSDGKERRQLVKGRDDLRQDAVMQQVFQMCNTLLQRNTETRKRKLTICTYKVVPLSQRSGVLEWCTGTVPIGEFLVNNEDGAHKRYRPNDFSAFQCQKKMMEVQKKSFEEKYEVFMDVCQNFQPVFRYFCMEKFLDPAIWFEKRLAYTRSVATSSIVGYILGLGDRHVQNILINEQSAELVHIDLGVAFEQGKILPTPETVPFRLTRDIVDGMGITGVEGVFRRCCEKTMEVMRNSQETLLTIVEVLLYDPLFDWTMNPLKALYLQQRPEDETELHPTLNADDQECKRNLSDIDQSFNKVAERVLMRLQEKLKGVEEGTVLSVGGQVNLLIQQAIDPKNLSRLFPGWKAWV
# [2] = target: Serine/threonine-protein kinase mTOR (Homo sapiens, UniProt P42345); assay: Inhibition of mTOR (unknown origin) incubated for 40 mins in the presence of Mn/ATP mix by scintillation counting analysis
# SW-620 [3] = assay: Induction of apoptosis in human SW620 cells assessed as late apoptotic cells at 100 nM measured after 72 hrs in presence of CPT-11 by Annexin V-FITC staining based flow cytometric analysis (reference value: 5.75%); type: functional
# SW-620 [4] = assay: Induction of apoptosis in human SW620 cells assessed as late apoptotic cells at 30 nM measured after 72 hrs in presence of CPT-11 by Annexin V-FITC staining based flow cytometric analysis (reference value: 5.75%); type: functional
# SW-620 [5] = assay: Induction of apoptosis in human SW620 cells assessed as necrotic cells at 10 nM measured after 72 hrs in presence of CPT-11 by Annexin V-FITC staining based flow cytometric analysis (reference value: 5.83%); type: functional
# SW-620 [6] = assay: Induction of apoptosis in human SW620 cells assessed as early apoptotic cells at 100 nM measured after 72 hrs by Annexin V-FITC staining based flow cytometric analysis (reference value: 1.06%); type: functional
# HCT-116 [7] = assay: Induction of apoptosis in human HCT-116 cells assessed as viable cells at 100 nM measured after 72 hrs in presence of CPT-11 by Annexin V-FITC staining based flow cytometric analysis (reference value: 73.74%); type: functional; conditions: read-out: Activity
# HCT-116 [8] = assay: Induction of apoptosis in human HCT-116 cells assessed as early apoptotic cells at 100 nM measured after 72 hrs in presence of CPT-11 by Annexin V-FITC staining based flow cytometric analysis (reference value: 4.06%); type: functional
# HCT-116 [9] = assay: Induction of apoptosis in human HCT-116 cells assessed as late apoptotic cells at 100 nM measured after 72 hrs in presence of CPT-11 by Annexin V-FITC staining based flow cytometric analysis (reference value: 19.80%); type: functional
# HCT-116 [10] = assay: Induction of apoptosis in human HCT-116 cells assessed as early apoptotic cells at 10 nM measured after 72 hrs in presence of CPT-11 by Annexin V-FITC staining based flow cytometric analysis (reference value: 4.06%); type: functional
# [11] = target: T1, Serine-protein kinase ATM; assay: Inhibition of ATM phosphorylation in human SW620 cells with IR-induced DNA damage in the presence of 1.5 Gy irradiation by Western blot analysis; type: cell-based; conditions: dose 3-250 nM
# [12] = Toxicity in BALB/c mouse xenografted with human SW620 cells assessed as heart damage at 5 mg/kg, ip administered once daily and measured after 23 days by H&E staining based microscopic analysis; type: organism-based, SW-620; conditions: in vivo, 552 h, time 23 day
# [13] = Toxicity in BALB/c mouse xenografted with human SW620 cells assessed as spleen damage at 5 mg/kg, ip administered once daily and measured after 23 days by H&E staining based microscopic analysis; type: organism-based, SW-620; conditions: in vivo, 552 h, time 23 day
# [14] = Toxicity in BALB/c mouse xenografted with human SW620 cells assessed as kidney damage at 5 mg/kg, ip administered once daily and measured after 23 days by H&E staining based microscopic analysis; type: organism-based, SW-620; conditions: in vivo, 552 h, time 23 day
# [15] = target: T1, Serine-protein kinase ATM; assay: Inhibition of ATM in human SW620 cells assessed as increase in gamma H2AX foci accumulation at 50 to 250 nM incubated for 24 hrs in the presence of CPT-11 by confocal microscopic analysis; type: cell-based; conditions: dose 50-250 nM
smiles,measurement,setting,value
C[C@H](c1ccccc1)n1nnc2cnc3ccc(-c4ccc(OCCCN(C)C)nc4)cc3c21,IC50,[1],1 nM
same,IC50,[2],216 nM
same,Activity,SW-620 [3],60.69%
same,Activity,SW-620 [4],44%
same,Activity,SW-620 [5],5.94%
same,Activity,SW-620 [6],1.88%
same,viability at 0.1 µM,HCT-116 [7],22%
same,Activity,HCT-116 [8],2.77%
same,Activity,HCT-116 [9],68.15%
same,Activity,HCT-116 [10],1.1%
same,inhibition,[11],Dose-Dependent Effect
same,Activity,[12],Non-Toxic
same,Activity,[13],Non-Toxic
same,Activity,[14],Non-Toxic
same,inhibition,[15],Active
